Values of other authors in article PMC12181400, “Leveraging viral genome sequences and machine learning models for identification of potentially selective antiviral agents” (Communications Chemistry, 2025).
Counter-ions that a name gives are not always drawn. Like-named read-outs stand apart in the source and are kept apart here.

Experiments:
Conditions in all cases: cited from earlier work
[1] = test system: cell viability (tox21-ap1-agonist-p1)
[2] = test system: cell viability (tox21-ar-mda-kb2-luc-agonist-p3)
[3] = test system: cell viability (tox21-ar-mda-kb2-luc-antagonist-p2)
[4] = test system: cell viability (tox21-are-bla-p1)
[5] = test system: cell viability (tox21-car-agonist-p1)
[6] = test system: cell viability (tox21-car-antagonist-p1)
[7] = curve rank −9 to 9, 0 = inactive, ref NCATS Tox21 public data browser

SMILES	tox21-ap1-agonist-p1-viability (curve rank) [1]	tox21-ar-mda-kb2-luc-agonist-p3-viability (curve rank) [2]	tox21-ar-mda-kb2-luc-antagonist-p2-viability (curve rank) [3]	tox21-are-bla-p1-viability (curve rank) [4]	tox21-car-agonist-p1-viability (curve rank) [5]	tox21-car-antagonist-p1-viability (curve rank) [6]	tox21-ap1-agonist-p1-viability (curve rank) [1, 7]	tox21-ar-mda-kb2-luc-agonist-p3-viability (curve rank) [2, 7]	tox21-ar-mda-kb2-luc-antagonist-p2-viability (curve rank) [3, 7]	tox21-are-bla-p1-viability (curve rank) [4, 7]	tox21-car-agonist-p1-viability (curve rank) [5, 7]	tox21-car-antagonist-p1-viability (curve rank) [6, 7]
CCN(CC)CCNC(=O)c1cc(Br)c(N)cc1OC [Bromopride]	0	0	0	0	0	0						
COc1cc(C(=O)NCCCCCC(=O)O)cc(OC)c1OC [Capobenic acid]							0	0	0	0	0	0
NC(=O)N1c2ccccc2C=Cc2ccccc21 [Carbamazepine]	0	0	0	0	0	0						
CC(C)(C)NCC(O)COc1cccc2c1CCC(=O)N2 (stereo not drawn) [Carteolol hydrochloride]	0	0	0	0	0	0						
CO[C@@]1(NC(=O)CSCC#N)C(=O)N2C(C(=O)O)=C(CSc3nnnn3C)CS[C@@H]21 [Cefmetazole sodium]	-0.67	0	0	0	0	0						
CN(C)CCn1nnnc1SCC1=C(C(=O)O)N2C(=O)[C@@H](NC(=O)Cc3csc(N)n3)[C@H]2SC1 [Cefotiam hydrochloride]	0	0	0	0	0	0						
CN1C(=O)CCS(=O)(=O)C1c1ccc(Cl)cc1 (stereo not drawn) [Chlormezanone]							0	0	0	0	0	0
O=C(O)c1cc(=O)c2ccccc2o1 [Chromocarb]							0	0	0	0	0	0
CC(C)(Oc1ccc(Cl)cc1)C(=O)O [Clofibric acid]	0	0	0	0	0	0						
Cc1ncsc1CCCl [Clomethiazole]							0	0	0	0	0	0
Clc1cccc(Cl)c1N=C1NCCN1 [Clonidine]	0	0	0	0	0	0						
COC(=O)[C@H](c1ccccc1Cl)N1CCc2sccc2C1 [Clopidogrel bisulfate]	0	0	0	0	0	0						
Cc1nc(C)c(Cl)c(O)c1Cl [Clopidol]							-0.67	0	0	0	0	0
CN1C(=O)CC[C@H]1c1cccnc1 [Cotinine]	0	0	0	0	0	0						
CN(C)CCOC(=O)C(c1ccccc1)C1(O)CCCC1 (stereo not drawn) [Cyclopentolate hydrochloride]							0	0	0	0	0	0
NS(=O)(=O)c1cc2c(cc1Cl)NC(C1CC3C=CC1C3)NS2(=O)=O (stereo not drawn) [Cyclothiazide]							0	0	0	0	0	0
CCOP(=S)(OCC)Oc1cc(C)nc(C(C)C)n1 [Diazinon]							0	0	0	0	0	0
COc1ccc(-c2cc(=O)c3c(O)cc(O[C@@H]4O[C@H](CO[C@@H]5O[C@@H](C)[C@H](O)[C@@H](O)[C@H]5O)[C@@H](O)[C@H](O)[C@H]4O)cc3o2)cc1O [Diosmin]	0	0	0	0	0	0						
CC(C)N(CCC(C(N)=O)(c1ccccc1)c1ccccn1)C(C)C (stereo not drawn) [Disopyramide]	0	0	0	0	0	0						
OCC(O)CN1CCN(c2ccccc2)CC1 (stereo not drawn) [Dropropizine]							0	0	0	0	0	0
CCC1(C2=NCCN2)Cc2ccccc2O1 (stereo not drawn) [Efaroxan]							0	0	0	0	0	0
